Measured values: patent publication US10526385B2, “YAP protein inhibiting polypeptide and application thereof” (BAO KANG BIOMEDICAL HEALTHCARE INC, priority 2013, dated 2020)
Where two headings read alike, the source gives them in different places. Where a SMILES comes first, the peptide text is derived from it. Bridges are numbered along the chain shown (N, C = ends). [ ]: non-standard residue; d: D form. Phe(3-Cl) = N[C@@H](Cc1cccc(Cl)c1)C(=O)O; hCys = N[C@@H](CCS)C(=O)O; Nle = CCCC[C@H](N)C(=O)O

How the values were obtained:
[1] = test system: hepatoma cell line BEL7404; format: cell-based; conditions: for YAP inhibitory activity: summary of Table 8 in words
Method: (§1) The hepatoma cell line BEL7404 (purchased from The Chinese Academy of Sciences cell bank) was a cell line with high expression of YAP protein; HCCLM3 (purchased from The Chinese Academy of Sciences cell bank) was a cell line with low expression of YAP protein. The hepatoma cell lines (BEL7404 or HCCLM3) were inoculated into a 96-well plate at the concentration of 2000 cells/well, and incubated overnight in RPMI1640 containing 1% bovine serum at 37° C. The hepatoma cell lines were treated with polypeptides having different concentrations at 37° C. for 72 h.
(§2) Moreover, IC50 values of the cells in 1.1 were determined using CCK-8 kit.
(§3) The polypeptide represented by SEQ ID NO.:1 was further modified. The IC50 values of the polypeptides at a concentration of 1% in cell cultivating for 72 h were measured.

[2] = test system: hepatoma cell line HCCLM3; format: cell-based
Method: as §1, §2, §3

[3] = Table 8, at a concentration of 1% in cell cultivating for 72 h, unit inferred, read-out: IC50 BEL7404
[4] = Table 8, at a concentration of 1% in cell cultivating for 72 h, unit inferred, read-out: IC50 HCCLM3

| IC50 ([1]; 72 h) [µM] | IC50 ([2]; 72 h) [µM] | IC50 [1, 3] [µM] | IC50 [2, 4] [µM] | Molecule | other results |
| --- | --- | --- | --- | --- | --- |
| 242 ± 27.2 | > 1000 |  |  | CSCC[C@H](NC(=O)[C@H](CCCNC(=N)N)NC(=O)[C@@H](N)CCCNC(=N)N)C(=O)N[C@@H](CCCCN)C(=O)N[C@@H](Cc1c[nH]c2ccccc12)C(=O)N[C@@H](CCCCN)C(=O)N[C@@H](CCCCN)C(=O)N1CCC[C@H]1C(=O)N[C@@H](CCC(N)=O)C(=O)NCC(=O)N[C@@H](CCC(N)=O)C(=O)NCC(=O)N1CCC[C@H]1C(=O)N1CCC[C@H]1C(=O)N[C@@H](CO)C(=O)NCC(=O)N1CCC[C@H]1C(=O)NCC(=O)N[C@@H](CCC(N)=O)C(=O)N1CCC[C@H]1C(=O)N[C@@H](C)C(=O)N1CCC[C@H]1C(=O)N[C@@H](C)C(=O)O [SEQ ID NO.: 16] |  |
| 211 ± 44.2 | > 1000 |  |  | CC[C@H](C)[C@H](NC(=O)[C@H](CCCCN)NC(=O)[C@H](CCCCN)NC(=O)[C@H](Cc1c[nH]c2ccccc12)NC(=O)[C@H](CCCCN)NC(=O)[C@H](CCSC)NC(=O)[C@H](CCCNC(=N)N)NC(=O)[C@@H](N)CCCNC(=N)N)C(=O)N[C@H](C(=O)N[C@@H](Cc1c[nH]cn1)C(=O)N[C@H](C(=O)N[C@@H](CCCNC(=N)N)C(=O)NCC(=O)N[C@@H](CC(=O)O)C(=O)N[C@@H](CO)C(=O)N[C@@H](CCC(=O)O)C(=O)N[C@H](C(=O)N[C@@H](CC(=O)O)C(=O)N[C@@H](CC(C)C)C(=O)N[C@@H](CCC(=O)O)C(=O)N[C@@H](C)C(=O)N[C@@H](CC(C)C)C(=O)N[C@@H](Cc1ccccc1)C(=O)O)[C@@H](C)O)C(C)C)C(C)C [SEQ ID NO.: 17] |  |
| 816 ± 14.4 | > 1000 |  |  | CSCC[C@H](NC(=O)[C@H](CCCNC(=N)N)NC(=O)[C@@H](N)CCCNC(=N)N)C(=O)N[C@@H](CCCCN)C(=O)N[C@@H](Cc1c[nH]c2ccccc12)C(=O)N[C@@H](CCCCN)C(=O)N[C@@H](CCCCN)C(=O)N[C@H](C(=O)N[C@@H](C)C(=O)NCC(=O)N[C@@H](C)C(=O)N[C@@H](CC(C)C)C(=O)N[C@H](C(=O)N1CCC[C@H]1C(=O)N[C@@H](CCC(N)=O)C(=O)N[C@@H](Cc1c[nH]cn1)C(=O)N[C@H](C(=O)N[C@@H](CCCNC(=N)N)C(=O)N[C@@H](C)C(=O)N[C@@H](Cc1c[nH]cn1)C(=O)N[C@@H](CO)C(=O)N[C@@H](CO)C(=O)N1CCC[C@H]1C(=O)O)C(C)C)[C@@H](C)O)[C@@H](C)O [SEQ ID NO.: 18] |  |
| 763 ± 31.5 | > 1000 |  |  | CSCC[C@H](NC(=O)[C@H](CCCNC(=N)N)NC(=O)[C@@H](N)CCCNC(=N)N)C(=O)N[C@@H](CCCCN)C(=O)N[C@@H](Cc1c[nH]c2ccccc12)C(=O)N[C@@H](CCCCN)C(=O)N[C@@H](CCCCN)C(=O)N1CCC[C@H]1C(=O)N[C@H](C(=O)NCC(=O)N[C@H](C(=O)N[C@H](C(=O)N[C@@H](CO)C(=O)NCC(=O)N1CCC[C@H]1C(=O)N[C@@H](C)C(=O)N[C@@H](C)C(=O)N[C@H](C(=O)N1CCC[C@H]1C(=O)N[C@H](C(=O)N[C@@H](C)C(=O)N[C@@H](CCC(N)=O)C(=O)N[C@@H](Cc1c[nH]cn1)C(=O)O)[C@@H](C)O)[C@@H](C)O)C(C)C)C(C)C)[C@@H](C)O [SEQ ID NO.: 19] |  |
| 444 ± 46.5 | > 1000 |  |  | CSCC[C@H](NC(=O)[C@H](CCC(=O)O)NC(=O)[C@H](Cc1c[nH]c2ccccc12)NC(=O)CNC(=O)[C@H](C)NC(=O)[C@@H]1CCCN1C(=O)[C@H](CCCCN)NC(=O)[C@H](CCCCN)NC(=O)[C@H](Cc1c[nH]c2ccccc12)NC(=O)[C@H](CCCCN)NC(=O)[C@H](CCSC)NC(=O)[C@H](CCCNC(=N)N)NC(=O)[C@@H](N)CCCNC(=N)N)C(=O)N[C@@H](C)C(=O)N[C@@H](CCCCN)C(=O)N[C@H](C(=O)N[C@@H](CO)C(=O)N[C@@H](CO)C(=O)NCC(=O)N[C@@H](CCC(N)=O)C(=O)N[C@@H](CCCNC(=N)N)C(=O)N[C@@H](Cc1ccc(O)cc1)C(=O)N[C@@H](Cc1ccccc1)C(=O)O)[C@@H](C)O [SEQ ID NO.: 20] |  |
|  |  | 28.6 ± 2.9 | 196 ± 16.3 | CCCC[C@@H]1NC(=O)[C@H](CCCCN)NC(=O)[C@H](CCCNC(=N)N)NC(=O)[C@H](CC(C)C)NC(=O)[C@@H](NC(=O)[C@H](Cc2cccc(Cl)c2)NC(=O)[C@@H]2CCCN2C(=O)[C@@H](N)C(C)C)CCSSC[C@@H](C(=O)N[C@@H](CCCCN)C(=O)N2CCC[C@H]2C(=O)N2CCC[C@H]2C(=O)N[C@@H](CCCNC(=N)N)C(=O)N[C@@H](CCCNC(=N)N)C(=O)N[C@@H](CCSC)C(=O)N[C@@H](CCCCN)C(=O)N[C@@H](Cc2c[nH]c3ccccc23)C(=O)N[C@@H](CCCCN)C(=O)N[C@@H](CCCCN)C(=O)O)NC(=O)[C@H](Cc2ccccc2)NC(=O)[C@H](CO)NC(=O)[C@H](C)NC(=O)[C@@H]2CCCN2C1=O [compound 21] (H-VP[Phe(3-Cl)][hCys]LRK[Nle]PASFCKPPRRMKWKK-OH; disulfide 4-13) |  |
|  |  | 67.9 ± 6.4 | 181 ± 21.7 | CCCC[C@@H]1NC(=O)[C@H](CCCCN)NC(=O)[C@H](CCCNC(=N)N)NC(=O)[C@H](CC(C)C)NC(=O)[C@@H](NC(=O)[C@H](Cc2cccc(Cl)c2)NC(=O)[C@@H]2CCCN2C(=O)[C@@H](N)C(C)C)CCSSC[C@@H](C(=O)N[C@@H](CCCCN)C(=O)N2CCC[C@H]2C(=O)N2CCC[C@H]2C(=O)N[C@@H](CCCNC(=N)N)C(=O)N[C@@H](CCCNC(=N)N)C(=O)N[C@@H](CCSC)C(=O)N[C@@H](CCCCN)C(=O)N[C@@H](Cc2c[nH]c3ccccc23)C(=O)N[C@@H](CCCCN)C(=O)N[C@@H](CCCCN)C(=O)O)NC(=O)[C@H](Cc2ccccc2)NC(=O)[C@H](CO)NC(=O)[C@H](CCC(=O)O)NC(=O)[C@@H]2CCCN2C1=O [compound 22] (H-VP[Phe(3-Cl)][hCys]LRK[Nle]PESFCKPPRRMKWKK-OH; disulfide 4-13) |  |
|  |  | 37.2 ± 1 | 129 ± 26.4 | CCCC[C@@H]1NC(=O)[C@H](CCCCN)NC(=O)[C@H](CCCCN)NC(=O)[C@H](CC(C)C)NC(=O)[C@@H](NC(=O)[C@H](Cc2cccc(Cl)c2)NC(=O)[C@@H]2CCCN2C(=O)[C@@H](N)C(C)C)CCSSC[C@@H](C(=O)N[C@@H](CCCCN)C(=O)N2CCC[C@H]2C(=O)N2CCC[C@H]2C(=O)N[C@@H](CCCNC(=N)N)C(=O)N[C@@H](CCCNC(=N)N)C(=O)N[C@@H](CCSC)C(=O)N[C@@H](CCCCN)C(=O)N[C@@H](Cc2c[nH]c3ccccc23)C(=O)N[C@@H](CCCCN)C(=O)N[C@@H](CCCCN)C(=O)O)NC(=O)[C@H](Cc2ccccc2)NC(=O)[C@H](CO)NC(=O)[C@H](C)NC(=O)[C@@H]2CCCN2C1=O [compound 23] (H-VP[Phe(3-Cl)][hCys]LKK[Nle]PASFCKPPRRMKWKK-OH; disulfide 4-13) |  |
|  |  | 25.7 ± 3 | 67.3 ± 38.5 | CCCC[C@@H]1NC(=O)[C@H](CCCNC(=N)N)NC(=O)[C@H](CCCCN)NC(=O)[C@H](CC(C)C)NC(=O)[C@@H](NC(=O)[C@H](Cc2cccc(Cl)c2)NC(=O)[C@@H]2CCCN2C(=O)[C@@H](N)C(C)C)CCSSC[C@@H](C(=O)N[C@@H](CCCCN)C(=O)N2CCC[C@H]2C(=O)N2CCC[C@H]2C(=O)N[C@@H](CCCNC(=N)N)C(=O)N[C@@H](CCCNC(=N)N)C(=O)N[C@@H](CCSC)C(=O)N[C@@H](CCCCN)C(=O)N[C@@H](Cc2c[nH]c3ccccc23)C(=O)N[C@@H](CCCCN)C(=O)N[C@@H](CCCCN)C(=O)O)NC(=O)[C@H](Cc2ccccc2)NC(=O)[C@H](CO)NC(=O)[C@H](C)NC(=O)[C@@H]2CCCN2C1=O [compound 24] (H-VP[Phe(3-Cl)][hCys]LKR[Nle]PASFCKPPRRMKWKK-OH; disulfide 4-13) |  |
|  |  | 119 ± 7.1 | > 1000 | CCCC[C@@H]1NC(=O)[C@H](CCCCN)NC(=O)[C@H](CCCCN)NC(=O)[C@H](CC(C)C)NC(=O)[C@@H](NC(=O)[C@H](Cc2cccc(Cl)c2)NC(=O)[C@@H]2CCCN2C(=O)[C@H](C)N)CCSSC[C@@H](C(=O)N[C@@H](CCCCN)C(=O)N2CCC[C@H]2C(=O)N2CCC[C@H]2C(=O)N[C@@H](CCCNC(=N)N)C(=O)N[C@@H](CCCNC(=N)N)C(=O)N[C@@H](CCSC)C(=O)N[C@@H](CCCCN)C(=O)N[C@@H](Cc2c[nH]c3ccccc23)C(=O)N[C@@H](CCCCN)C(=O)N[C@@H](CCCCN)C(=O)O)NC(=O)[C@H](Cc2ccccc2)NC(=O)[C@H](CO)NC(=O)[C@H](CC(=O)O)NC(=O)[C@@H]2CCCN2C1=O [compound 25] (H-AP[Phe(3-Cl)][hCys]LKK[Nle]PDSFCKPPRRMKWKK-OH; disulfide 4-13) |  |
|  |  | 62.7 ± 5.9 | > 1000 | CCCC[C@@H]1NC(=O)[C@@H](NC(=O)[C@H](Cc2cccc(Cl)c2)NC(=O)[C@@H]2CCCN2C(=O)[C@H](C)N)CCSSC[C@@H](C(=O)N[C@@H](CCCCN)C(=O)N2CCC[C@H]2C(=O)N2CCC[C@H]2C(=O)N[C@@H](CCCNC(=N)N)C(=O)N[C@@H](CCCNC(=N)N)C(=O)N[C@@H](CCSC)C(=O)N[C@@H](CCCCN)C(=O)N[C@@H](Cc2c[nH]c3ccccc23)C(=O)N[C@@H](CCCCN)C(=O)N[C@@H](CCCCN)C(=O)O)NC(=O)[C@H](Cc2ccccc2)NC(=O)[C@H](CO)NC(=O)[C@H](CC(=O)O)NC(=O)[C@@H]2CCCN2C(=O)[C@H](CCCC)NC(=O)[C@H](CCCCN)NC(=O)[C@H](CCCCN)NC1=O [compound 26] (H-AP[Phe(3-Cl)][hCys][Nle]KK[Nle]PDSFCKPPRRMKWKK-OH; disulfide 4-13) |  |
|  |  |  |  | VP(3-Cl)F-Hcy-LKK-Nle-PASFCKPP RRMKWKK [SEQ ID NO.: 23] | YAP inhibitory activity [1]: best inhibitory activity |
|  |  |  |  | VP(3-Cl)F-Hcy-LRK-Nle-PASFCKPP RRMKWKK [SEQ ID NO.: 21] | YAP inhibitory activity [1]: best inhibitory activity |
|  |  |  |  | VP(3-Cl)F-LKK-Hcy-Nle-PASFKPPC RRMKWKK [SEQ ID NO.: 33] | YAP inhibitory activity [1]: best inhibitory activity |
|  |  |  |  | VP-Hcy-(3-Cl)F-LKK-Nle-PASCFKPP RRMKWKK [SEQ ID NO.: 31] | YAP inhibitory activity [1]: best inhibitory activity |
